Results as given in article PMC7288559 (ACS Omega, 2020).

What was measured:
[1] = target: recombinant human LDHA (Homo sapiens, UniProt P00338); assay: LDHA enzymatic assay based on NADH cofactor consumption [NAD; type: biochemical; details: in vitro, dose-dependent
[2] = system: hepatocellular carcinoma cells Snu-398; type: cell-based; details: lactate in supernatant
[3] = system: pancreatic carcinoma cells MIA PaCa-2; type: cell-based; details: lactate in supernatant

Inhibition of lactate production by recombinant human LDHA [1] | SMILES | Inhibition of lactate production in cells [2] | Inhibition of lactate production in cells [3]
completely inhibited | O=C(O)c1ccc(CN2C(=O)c3cccc(NC(=O)c4ccc(Cl)s4)c3C2=O)cc1 [Compound 3, 4-[(4-{[(5-chloro-2-thienyl)carbonyl]amino}-1,3-dioxo-1,3-dihydro-2H-isoindol-2-yl)methyl]benzoic acid] | neither 3 nor 7 showed inhibition | neither 3 nor 7 showed inhibition
completely inhibited | O=C(Nc1cccc(NS(=O)(=O)c2ccc3oc4cc([N+](=O)[O-])ccc4c3c2)c1)C1(O)CC1 [Compound 7, 1-hydroxy-N-(3-{[(7-nitrodibenzo[b,d]furan-2-yl)sulfonyl]amino}phenyl)cyclopropanecarboxamide] | neither 3 nor 7 showed inhibition | neither 3 nor 7 showed inhibition
